# Data published in patent US6951882B2, “Substituted 4-phenyl-[1,3]-dioxanes” (Janssen Pharmaceutica N.V., priority 2002, dated 2005).
# How the values were obtained:
# [1] = target: T1, orexin-2 receptor (Homo sapiens, UniProt O43614); assay: Orexin radioligand binding assay (125I-orexin A, adherent recombinant cells); conditions: 125I-orexin A displacement, recombinant CHO-K1 or HEK-293 cells expressing the orexin receptor
# T1 construct: expressed in transfected cells; host or cells: CHO-K1 (preferred) or HEK-293 recombinant clones
# T1 sequence (O43614 1-444): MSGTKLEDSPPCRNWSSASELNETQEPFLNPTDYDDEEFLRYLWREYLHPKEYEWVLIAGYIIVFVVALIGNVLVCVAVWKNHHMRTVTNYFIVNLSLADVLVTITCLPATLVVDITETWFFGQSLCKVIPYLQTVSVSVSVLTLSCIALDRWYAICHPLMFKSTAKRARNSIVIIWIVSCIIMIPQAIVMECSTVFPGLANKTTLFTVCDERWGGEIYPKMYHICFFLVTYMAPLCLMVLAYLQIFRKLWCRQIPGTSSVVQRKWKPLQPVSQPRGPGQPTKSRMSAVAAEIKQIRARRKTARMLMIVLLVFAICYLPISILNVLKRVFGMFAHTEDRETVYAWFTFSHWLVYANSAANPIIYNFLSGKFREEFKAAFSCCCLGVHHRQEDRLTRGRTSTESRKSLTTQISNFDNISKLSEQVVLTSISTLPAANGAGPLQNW
# Description: The reaction was quenched with 100 μL of 10% w/v bovine serum albumin, then the products were pre-purified using Waters Maxi-Clean C18 cartridges (Alltech, San Jose, Calif.). The mobile phase for the reverse phase separations (pre-purification and gradient HPLC) was 0.1% TFA, and the eluent was 0.1% TFA in acetonitrile. After removing the acetonitrile from the Maxi-Clean cartridge eluent by lyophilization, the labeled compound was further purified by gradient HPLC using a Vydac (Hesperia, Calif.) analytical C18 HPLC column. A gradient of 2% acetonitrile/min was used and fractions were collected every 0.75 min at a flow rate of 1.5 mL/min.
# Radioligand binding assays were performed in opaque, white 96-well tissue culture plates pretreated with poly-D-lysine (Bio-Coat plates, Becton Dickinson, Franklin Lakes, N.J.). Cells expressing the orexin receptor were seeded at 30,000 cells/well in 100 μL/well Ham's F12 with 10% heat inactivated fetal bovine serum, penicillin/streptomycin and 800 mg/L G418. […] In preparation for the binding assay, the cell culture medium was aspirated away, and the cells were gently washed with 100 μL-well binding buffer (Dulbecco's phosphate buffered saline containing 0.1% w/v bovine serum albumin). […] The assay was terminated by aspirating the liquid from the wells, washing the wells with iced binding buffer, aspirating the wells dry, adding 50 μL/well scintillation cocktail (MicroScint 40, Packard Biosciences, Meriden Conn.), and counting the plate(s) in a Packard TopCount scintillation counter. […] Data were analyzed using GraphPad Prizm software to calculate Ki values.
# [2] = target: T2, orexin receptors in PFSK-1 cells (Homo sapiens, UniProt O43614); assay: Intracellular calcium ion measurement (FLIPR, Fluo-3 AM) in PFSK-1 cells, antagonism of orexin agonist; type: cell-based
# T2 construct: host or cells: PFSK-1
# T2 sequence (O43614 1-444): T1 sequence (O43614 1-444)
# Description: PFSK-1 cells were obtained from the American Type Culture Collection (CRL-2060; Manassas, Va.) and cultured as described by Fults et al. (J. Neuropathology Exp. Neurology, 1992, 51 (3):272-280). Cells were grown on 10 or 15 cm tissue culture dishes (Corning Inc., Corning, N.Y.) in RPMI medium 1640 containing 25 mM Hepes and L-glutamine (Gibco/InVitrogen, Carlsbad, Calif.) supplemented with 10% fetal bovine serum (HyClone, Logan, Utah), 50 u/mL penicillin G, and 50 u/mL streptomycin sulphate. Cells grown on 10 dishes were grown in 10 mL complete medium, and cells grown on 15 cm dishes were grown in 30 mL complete medium. Cells were passed every 3 to 5 days at a 1:5 dilution by aspirating away the medium, adding 2 mL/dish Gibco/Invitrogen Trypsin-EDTA solution, aspirating away the solution, incubating at room temperature 5 min, and dispersing the cells into fresh plates using fresh complete medium. Cells were then maintained in incubators set to maintain 37° C. and 5% CO2.
# Agonist binding of orexin receptors elevates the intracellular free calcium ion concentration through the activation of a Gq protein and the opening of voltage-activated plasmalemmal calcium channels (see: A. N. Van Den Pol et al. J. Neurosci., 1998, 18(19):7962-7971). This effect was monitored using the fluorescent Ca^++ indicator Fluo-3 AM (TefLabs, Austin, Tex.) and the Molecular Devices (Sunnyvale, Calif.) FLIPR instrument.
# PFSK-1 cells were removed from confluent tissue culture dishes with trypsin-EDTA as described above and plated in 96-well Packard Viewplates (Meriden, Conn.) at 50,000 cells/well in 100 μL/well complete medium. The next day the cells, which adhered to the Viewplates and grew to confluency, were loaded with the fluorescent dye. […] Test compounds were added to the wells in an isotonic, pH-neutral vehicle, such as Dulbecco's phosphate-buffered saline, and changes in intracellular calcium concentrations were measured using the FLIPR instrument.
# The compounds were delivered to the test wells, and the compounds and the cells were incubated to allow binding. […] The control column for the antagonist screen included positive and negative controls to indicate the fluorescence of a full agonist response and the baseline.
# Antagonism was analyzed by calculating KB and pKB values for compounds found to inhibit increases in intracellular Ca^++ concentrations of PFSK-1 cells. This was accomplished by determining the EC50 of orexin B and comparing the IC50 values determined from dilutions of antagonist compound(s), all on a single 96-well Viewplate of PFSK-1 cells loaded with Fluo-3 AM. […] The KB is then determined after Y.-C. […]
Ki [1] [nM],Kb [2] [nM],SMILES
9,25.1,"CC1(C)OC[C@H](NC(=O)Nc2ccc(Br)cc2Cl)[C@H](c2ccccc2)O1 [Example 1, 1-(4-Bromo-2-chloro-phenyl)-3-((4S,5S)-2,2-dimethyl-4-phenyl-[1,3]dioxan-5-yl)-urea]"
10,5.01,"CC1(C)OC[C@H](NC(=O)Nc2ccc(Br)cc2Br)[C@H](c2ccccc2)O1 [Example 4, 1-(2,4-Dibromo-phenyl)-3-((4S,5S)-2,2-dimethyl-4-phenyl-[1,3]dioxan-5-yl)-urea]"
15,25.1,"CC1(C)OC[C@H](NC(=O)Nc2ccc(Cl)cc2Cl)[C@H](c2ccccc2)O1 [Example 5, 1-(2,4-Dichloro-phenyl)-3-((4S,5S)-2,2-dimethyl-4-phenyl-[1,3]dioxan-5-yl)-urea]"
5,6.31,"Cc1ccc(NC(=O)N[C@H]2COC(C)(C)O[C@H]2c2ccccc2)c(Br)c1 [Example 12, 1-(2-Bromo-4-methyl-phenyl)-3-((4S,5S)-2,2-dimethyl-4-phenyl-[1,3]dioxan-5-yl)-urea]"
2900,,"CC(C)c1ccccc1NC(=O)N[C@H]1COC(C)(C)O[C@H]1c1ccccc1 [Example 42, 1-((4S,5S)-2,2-Dimethyl-4-phenyl-[1,3]dioxan-5-yl)-3-(2-isopropyl-phenyl)-urea]"
5000,,"CC1(C)OC[C@H](NC(=O)Nc2c(Cl)cccc2Cl)[C@H](c2ccccc2)O1 [Example 43, 1-(2,6-Dichloro-phenyl)-3-((4S,5S)-2,2-dimethyl-4-phenyl-[1,3]dioxan-5-yl)-urea]"
3800,,"CC1(C)OC[C@H](NC(=O)Nc2cccc(Br)c2)[C@H](c2ccccc2)O1 [Example 44, 1-(3-Bromo-phenyl)-3-((4S,5S)-2,2-dimethyl-4-phenyl-[1,3]dioxan-5-yl)-urea]"
6000,,"CC1(C)OC[C@H](NC(=O)Nc2ccc(F)cc2F)[C@H](c2ccccc2)O1 [Example 45, 1-(2,4-Difluoro-phenyl)-3-((4S,5S)-2,2-dimethyl-4-phenyl-[1,3]dioxan-5-yl)-urea]"
2000,,"CC1(C)OC[C@H](NC(=O)Nc2cccc(Cl)c2)[C@H](c2ccccc2)O1 [Example 46, 1-(3-Chloro-phenyl)-3-((4S,5S)-2,2-dimethyl-4-phenyl-[1,3]dioxan-5-yl)-urea]"
